In this experiment the test system is recombinant NL4-3 virus. As to the kind of experiment: HIV cell culture assay. It is filed as cell-based. The conditions noted are these: Human immunodeficiency virus 1, NL43, MT2. Here is the method:
HIV cell culture assay—MT-2 cells and 293T cells were obtained from the NIH AIDS Research and Reference Reagent Program. MT-2 cells were propagated in RPMI 1640 media supplemented with 10% heat inactivated fetal bovine serum, 100 […]. The 293T cells were propagated in DMEM media supplemented with 10% heat inactivated fetal bovine serum (FBS), 100 units/ml penicillin G and 100 μg/ml streptomycin. The proviral DNA clone of NL4-3 was obtained from the NIH AIDS Research and Reference Reagent Program. A recombinant NL4-3 virus, in which a section of the nef gene from NL4-3 was replaced with the Renilla luciferase gene, was used as a reference virus. In addition, residue Gag P373 was converted to P373S. Briefly, the recombinant virus was prepared by transfection of the altered proviral clone of NL4-3. Transfections were performed in 293T cells using LipofectAMINE PLUS from Invitrogen (Carlsbad, Calif.), according to manufacturer's instruction. The virus was titered in MT-2 cells using luciferase enzyme activity as a marker. Luciferase was quantitated using the Dual Luciferase kit from Promega (Madison, Wis.), with modifications to the manufacturer's protocol. The diluted Passive Lysis solution was pre-mixed with the re-suspended Luciferase Assay Reagent and the re-suspended Stop & Glo Substrate (2:1:1 ratio). Fifty (50) μL of the mixture was added to each aspirated well on assay plates and luciferase activity was measured immediately on a Wallac TriLux (Perkin-Elmer). Antiviral activities of inhibitors toward the recombinant virus were quantified by measuring luciferase activity in cells infected for 4-5 days with NLRluc recombinants in the presence serial dilutions of the inhibitor.
On to `C=C(C)[C@@H]1CC[C@]2(CO)CC[C@]3(C)[C@H](CC[C@@H]4[C@@]5(C)CCN(S(=O)(=O)c6ccc(/C=C/C(=O)O)cc6)C(C)(C)C5CC[C@]43C)[C@@H]12` (stereo partly drawn) [Example 18, (E)-3-(4-(((6aR,6bR,8aS,11R,11aR,11bR,13aR,13bR)-8a-(hydroxymethyl)-4,4,6a,6b,13b-pentamethyl-11-(prop-1-en-2-yl)icosahydro-3H-cyclopenta[5,6]naphtho[2,1-f]isoquinolin-3-yl)sulfonyl)phenyl)acrylic acid], for which the EC50 is 4200 nM.

Consider `C=C(C)[C@@H]1CC[C@]2(CO)CC[C@]3(C)[C@H](CC[C@@H]4[C@@]5(C)CCN(S(=O)(=O)c6ccc(CC(=O)O)cc6)C(C)(C)C5CC[C@]43C)[C@@H]12` (stereo partly drawn) [Example 19, 2-(4-(((6aR,6bR,8aS,11R,11aR,11bR,13aR,13bR)-8a-(hydroxymethyl)-4,4,6a,6b,13b-pentamethyl-11-(prop-1-en-2-yl)icosahydro-3H-cyclopenta[5,6]naphtho[2,1-f]isoquinolin-3-yl)sulfonyl)phenyl)acetic acid], for which the EC50 was greater than 8000 nM.

For the compound `C=C(C)[C@@H]1CC[C@]2(CO)CC[C@]3(C)[C@H](CC[C@@H]4[C@@]5(C)CCN(S(=O)(=O)c6ccc(C(=O)O)cc6)C(C)(C)C5CC[C@]43C)[C@@H]12` (stereo partly drawn) [Example 20, 4-(((6aR,6bR,8aS,11R,11aR,11bR,13aR,13bR)-8a-(hydroxymethyl)-4,4,6a,6b,13b-pentamethyl-11-(prop-1-en-2-yl)icosahydro-3H-cyclopenta[5,6]naphtho[2,1-f]isoquinolin-3-yl)sulfonyl)benzoic acid], the EC50 was 3100 nM.

As for `C=C(C)[C@@H]1CC[C@]2(CO)CC[C@]3(C)[C@H](CC[C@@H]4[C@@]5(C)CCN(S(=O)(=O)c6ccsc6C(=O)O)C(C)(C)C5CC[C@]43C)[C@@H]12` (stereo partly drawn) [Example 21, 3-(((6aR,6bR,8aS,11R,11aR,11bR,13aR,13bR)-8a-(hydroxymethyl)-4,4,6a,6b,13b-pentamethyl-11-(prop-1-en-2-yl)icosahydro-3H-cyclopenta[5,6]naphtho[2,1-f]isoquinolin-3-yl)sulfonyl)thiophene-2-carboxylic acid], the EC50 is greater than 8000 nM.

On to `C=C(C)[C@@H]1CC[C@]2(C(=O)O)CC[C@]3(C)[C@H](CC[C@@H]4[C@@]5(C)CC(=O)N(c6ccc(C(=O)O)cc6)C(C)(C)[C@@H]5CC[C@]43C)[C@@H]12` [Example 22, (4aR,6aR,6bR,8aS,11R,11aR,11bR,13aR,13bR)-3-(4-carboxyphenyl)-4,4,6a,6b,13b-pentamethyl-2-oxo-11-(prop-1-en-2-yl)icosahydro-8aH-cyclopenta[5,6]naphtho[2,1-f]isoquinoline-8a-carboxylic acid], for which the EC50 is greater than 3000 nM.

As for `C=C(C)[C@@H]1CC[C@]2(CNCCCN3CCS(=O)(=O)CC3)CC[C@]3(C)[C@H](CC[C@@H]4[C@@]5(C)CCN(C(=O)CC(C)(C)C(=O)O)C(C)(C)[C@@H]5CC[C@]43C)[C@@H]12` [Example 23, 4-((4aR,6aR,6bR,8aS,11R,11aR,11bR,13aR,13bR)-8a-(((3-(1,1-dioxidothiomorpholino)propyl)amino)methyl)-4,4,6a,6b,13b-pentamethyl-11-(prop-1-en-2-yl)icosahydro-3H-cyclopenta[5,6]naphtho[2,1-f]isoquinolin-3-yl)-2,2-dimethyl-4-oxobutanoic acid], the EC50 stood at 390 nM.

For the compound `C=C(C)[C@@H]1CC[C@]2(CNCCCN3CCS(=O)(=O)CC3)CC[C@]3(C)[C@H](CC[C@@H]4[C@@]5(C)CCN(C(=O)CC(C)(C)CC(=O)O)C(C)(C)[C@@H]5CC[C@]43C)[C@@H]12` [Example 24, 5-((4aR,6aR,6bR,8aS,11R,11aR,11bR,13aR,13bR)-8a-(((3-(1,1-dioxidothiomorpholino)propyl)amino)methyl)-4,4,6a,6b,13b-pentamethyl-11-(prop-1-en-2-yl)icosahydro-3H-cyclopenta[5,6]naphtho[2,1-f]isoquinolin-3-yl)-3,3-dimethyl-5-oxopentanoic acid], the EC50 came to 120 nM.

Regarding `C=C(C)[C@@H]1CC[C@]2(CNCCCN3CCS(=O)(=O)CC3)CC[C@]3(C)[C@H](CC[C@@H]4[C@@]5(C)CCN(C(=O)CCC(C)(C)C(=O)O)C(C)(C)[C@@H]5CC[C@]43C)[C@@H]12` [Example 25, 5-((4aR,6aR,6bR,8aS,11R,11aR,11bR,13aR,13bR)-8a-(((3-(1,1-dioxidothiomorpholino)propyl)amino)methyl)-4,4,6a,6b,13b-pentamethyl-11-(prop-1-en-2-yl)hexadecahydro-1H-cyclopenta[5,6]naphtho[2,1-f]isoquinolin-3(2H,4H,13bH)-yl)-2,2-dimethyl-5-oxopentanoic acid], the EC50 is 120 nM.

In the case of `C=C(C)[C@@H]1CC[C@]2(CNCCCN3CCS(=O)(=O)CC3)CC[C@]3(C)[C@H](CC[C@@H]4[C@@]5(C)CCN(C(=O)CC6(CC(=O)O)CCCC6)C(C)(C)[C@@H]5CC[C@]43C)[C@@H]12` [Example 26, 2-(1-(2-((4aR,6aR,6bR,8aS,11R,11aR,11bR,13aR,13bR)-8a-(((3-(1,1-dioxidothiomorpholino)propyl)amino)methyl)-4,4,6a,6b,13b-pentamethyl-11-(prop-1-en-2-yl)hexadecahydro-1H-cyclopenta[5,6]naphtho[2,1-f]isoquinolin-3(2H,4H,13bH)-yl)-2-oxoethyl)cyclopentyl)acetic acid], the EC50 was found to be 130 nM.

Turning to `C=C(C)[C@@H]1CC[C@]2(CNCCCN3CCS(=O)(=O)CC3)CC[C@]3(C)[C@H](CC[C@@H]4[C@@]5(C)CCN(C(=O)Cc6cccc(CC(=O)O)c6)C(C)(C)[C@@H]5CC[C@]43C)[C@@H]12` [Example 27, 2-(3-(2-((4aR,6aR,6bR,8aS,11R,11aR,11bR,13aR,13bR)-8a-(((3-(1,1-dioxidothiomorpholino)propyl)amino)methyl)-4,4,6a,6b,13b-pentamethyl-11-(prop-1-en-2-yl)hexadecahydro-1H-cyclopenta[5,6]naphtho[2,1-f]isoquinolin-3(2H,4H,13bH)-yl)-2-oxoethyl)phenyl)acetic acid], the EC50 came to 300 nM.

Consider `C=C(C)[C@@H]1CC[C@]2(CNCCCN3CCS(=O)(=O)CC3)CC[C@]3(C)[C@H](CC[C@@H]4[C@@]5(C)CCN(C(=O)CCc6ccc(C(=O)O)cc6)C(C)(C)[C@@H]5CC[C@]43C)[C@@H]12` [Example 28, 4-(3-((4aR,6aR,6bR,8aS,11R,11aR,11bR,13aR,13bR)-8a-(((3-(1,1-dioxidothiomorpholino)propyl)amino)methyl)-4,4,6a,6b,13b-pentamethyl-11-(prop-1-en-2-yl)hexadecahydro-1H-cyclopenta[5,6]naphtho[2,1-f]isoquinolin-3(2H,4H,13bH)-yl)-3-oxopropyl)benzoic acid], for which the concentration for a half-maximal effect (EC50) stood at 940 nM.

For `C=C(C)[C@@H]1CC[C@]2(CNCCCN3CCS(=O)(=O)CC3)CC[C@]3(C)[C@H](CC[C@@H]4[C@@]5(C)CCN(C(=O)/C=C/c6ccc(C(=O)O)cc6)C(C)(C)[C@@H]5CC[C@]43C)[C@@H]12` [Example 29, 4-((E)-3-((4aR,6aR,6bR,8aS,11R,11aR,11bR,13aR,13bR)-8a-(((3-(1,1-dioxidothiomorpholino)propyl)amino)methyl)-4,4,6a,6b,13b-pentamethyl-11-(prop-1-en-2-yl)hexadecahydro-1H-cyclopenta[5,6]naphtho[2,1-f]isoquinolin-3(2H,4H,13bH)-yl)-3-oxoprop-1-en-1-yl)benzoic acid], the EC50 is 1590 nM.

For `C=C(C)[C@@H]1CC[C@]2(CNCCCN3CCS(=O)(=O)CC3)CC[C@]3(C)[C@H](CC[C@@H]4[C@@]5(C)CCN(C(=O)c6ccc(C(=O)O)cc6)C(C)(C)[C@@H]5CC[C@]43C)[C@@H]12` [Example 30, 4-((4aR,6aR,6bR,8aS,11R,11aR,11bR,13aR,13bR)-8a-(((3-(1,1-dioxidothiomorpholino)propyl)amino)methyl)-4,4,6a,6b,13b-pentamethyl-11-(prop-1-en-2-yl)icosahydro-1H-cyclopenta[5,6]naphtho[2,1-f]isoquinoline-3-carbonyl)benzoic acid], the EC50 stood at 110 nM.

Turning to `C=C(C)[C@@H]1CC[C@]2(CNCCCN3CCS(=O)(=O)CC3)CC[C@]3(C)[C@H](CC[C@@H]4[C@@]5(C)CCN(C(=O)/C=C/C(=O)O)C(C)(C)[C@@H]5CC[C@]43C)[C@@H]12` [Example 32, (E)-4-((4aR,6aR,6bR,8aS,11R,11aR,11bR,13aR,13bR)-8a-(((3-(1,1-dioxidothiomorpholino)propyl)amino)methyl)-4,4,6a,6b,13b-pentamethyl-11-(prop-1-en-2-yl)hexadecahydro-1H-cyclopenta[5,6]naphtho[2,1-f]isoquinolin-3(2H,4H,13bH)-yl)-4-oxobut-2-enoic acid], the EC50 was determined as 300 nM.

These data come from patent US20190307776A1, “AZA-S[…] HUMAN IMMUNODEFICIENCY VIRUS REPLICATION” (priority 2016, published 2019).
